# Results published in patent publication US9194864B2, “Screening methods employing insects with blood brain barrier” (Entomopharm ApS, priority 2008, dated 2015).
# Like-named read-outs stand apart in the source and are kept apart here.
# Assays:
# [1] = Hemolymph concentration after injection into grasshoppers, measured by LCMS; settings: male, Locusta migratoria (grasshopper/locust), in vivo
# Description: 40 μl of a 8.8 mg/ml solution of mianserin in 5% DMSO was injected into 18 grasshoppers, Locusta migratoria (males). After 5 minutes 20 μl of hemolymph was extracted from each locust. A cut was made through the frontal part of the locust head comprising the most frontal parts including the antennae, the compound eyes, the brain and all neural connections between the brain and the antennae and the eyes. The brain was then dissected in saline containing Evans Blue.
# 2 hemolymph samples were placed in a test tube containing 60 μl of distilled H2O and 200 μl acetonitrile. Each sample was centrifuged for 5 minutes (10000 g at 4° C.).
# 40 μl of a 8.8 mg/ml solution of mianserin in 5% DMSO was injected into 18 grasshoppers, Locusta migratoria (males). After 15 minutes 20 μl of hemolymph was extracted from each locust. A cut was made through the frontal part of the locust head comprising the most frontal parts including the antennae, the compound eyes, the brain and all neural connections between the brain and the antennae and the eyes. The brain was dissected in saline containing Evans Blue.
# 40 μl of a 8.8 mg/ml solution of mianserin in 5% DMSO was injected into 18 grasshoppers, Locusta migratoria (males). After 45 minutes 20 μl of hemolymph was extracted from each locust. […]
# in vivo = settings: male, Locusta migratoria (grasshopper/locust)
# [2] = cited from earlier work
smiles,measurement,setting,value
O=C1CC2(CCCC2)CC(=O)N1CCCCN1CCN(c2ncccn2)CC1 [buspirone],concentration at 5 min,[1]; 168 µg per insect,4500 ng/mL
same,concentration at 5 min,in vivo; 168 µg per insect,< 20 ng/mL
NCCc1c[nH]c2ccc(O)cc12 [serotonin],"penetration of the grasshopper blood brain barrier (BBB), conclusion in words","Locusta migratoria, injection","only penetrates the grasshopper BBB to a very low extend, if any at all"
same,endogenous level in the brain (concentration in brain supernatant),"no injection, washed in saline, 3 brains in one tube",20 ng/mL
same,concentration at 5 min,[1]; 12.6 µg per insect,4700 ng/mL
same,concentration at 5 min,"in vivo; 12.6 µg per insect, average concentration in brain supernatant, 20 μl of 630 μg/ml injected, 5 minutes, washed in saline, neural lamella included, 3 brains per tube",86.5 ng/mL
same,"BBB penetration in vertebrates, in words",[2],very low BBB penetration
CN1CCN2c3ccccc3Cc3ccccc3C2C1 (stereo not drawn) [mianserin],"penetration of the grasshopper blood brain barrier (BBB), conclusion in words",in vivo,penetrates the blood brain barrier (BBB) in grasshoppers
same,factor by which measured brain concentration is increased when the neural lamella is included,"male, Locusta migratoria (grasshopper/locust), in vivo, 5 min",3
